Assay results: US20110189318A1, “METHODS FOR ENHANCING THE EXPRESSION OF INTRACELLULAR REDOX-ASSOCIATED FACTORS” (priority 2010, published 2011)

Tests used:
[1] = tested on: thioredoxin superfamily; assay: Screen for flavonoid compounds enhancing expression of thioredoxin superfamily in keratinocytes; format: cell-based; conditions: normal human epidermal keratinocytes, 10 μM, 24 hours; FIG. 3
Protocol: (§1) Normal human epidermal keratinocytes (KK-4009, KURABO) were cultured in Defined Keratinocyte-SFM medium (10744-019, GIBCO) with 5% CO2 under high humidity at 37° C. For the cells with 100% of final density, the medium was replaced with EpiLife™ Calcium-Free Phenol Red Free medium (M-EPICF/PRF-500, KURABO) whose calcium concentration had been adjusted to 1.5 mM. Twenty-four hours later, each of the following agents was added so as to have a final concentration of 10 μM.
Twenty-four hours after adding the above agents, the mRNA expression levels of the redox-associated factors were quantified by the same method as Example 1.

[2] = tested on: redox-associated factors (thioredoxin reductase, thioredoxin, glutathione reductase, glutaredoxin); assay: mRNA expression of redox-associated factors in normal human epidermal keratinocytes (RT-PCR); format: cell-based; conditions: 10 μM, 24 hours, compared with vitamin E and lipoic acid, FIG. 1
Protocol: as §1, with “kaempferol (K0018, Tokyo Chemical Industry Co., Ltd), vitamin E (95240, FULKA), or lipoic acid ((+/−)-α-lipoic acid (T1395, SIGMA)” for “each of the following agents”
Twenty-four hours after adding the above agents, RNA was isolated by using QIAZOL Lysis Reagent (79306, QIAGEN) and purified by using RNeasy Kit (74106, QIAGEN). Subsequently, mRNAs of thioredoxin reductase, thioredoxin, glutathione reductase, glutaredoxin, and the ribosomal protein as an internal standard were quantified by the LightCycler™ software (Roche) using QuantiTect™ SYBR Green RT-PCR Kit (204243, QIAGEN). The Sequences of the used primers are shown below.
The mRNA amounts of thioredoxin reductase, thioredoxin, glutathione reductase and glutaredoxin were divided by the mRNA amount of the ribosomal protein to obtain the mRNA expression levels.

[3] = tested on: thioredoxin reductase and glutathione reductase; assay: mRNA expression of redox-associated factors in skin-equivalent models (q-PCR); format: cell-based, human; conditions: epidermal layer, 2 μM or 10 μM, 24 hours, FIG. 2
Protocol: Skin-equivalent models were made from normal human keratinocytes (Invitrogen), normal human fibroblasts (ATCC) and collagen I (Sigma), and cultured in Dulbecco's Modified Eagle's Medium (D-MEM) (Invitrogen) with 5% CO2 under high humidity at 37° C. Two μM or 10 μM kaempferol was added into the culture medium, and the models were cultured for twenty-four hours. Then RNA was isolated from epidermal layer of the skin-equivalent models by using a QIAGEN mRNA isolation kit. Subsequently, mRNAs of thioredoxin reductase and glutathione reductase, and 36B4 as an internal standard, were quantified by q-PCR (quantitative PCR by Bio-Rad MyiQ™ single color real time PCR detection system) using the Real-time PCR kit (Bio-Rad). The primers were purchased from QIAGEN (TXNRD2: #QT00070371; GSR; #QT00038325). The amounts of thioredoxin reductase and glutathione reductase were divided by the mRNA amount of 36B4 to obtain the mRNA expression level.

[4] = tested on: IL1β; assay: Suppression of expression of inflammatory cytokine IL1β mRNA in keratinocytes; format: cell-based; conditions: normal human epidermal keratinocytes, kaempferol 10 μM, extracts 0.1%, 24 hours; FIG. 6
Protocol: Normal human epidermal keratinocytes (KK-4009, KURABO) were cultured in Defined Keratinocyte-SFM medium (10744-019, GIBCO) with 5% CO2 under high humidity at 37° C. For the cells with 100% of final density, the medium was replaced with EpiLifeTM Calcium-Free Phenol Red Free medium ([…]) in which calcium concentration had been adjusted to 1.5 mM. Twenty-four hours later, kaempferol was added to have 10 μM of final concentration and each of the following plant extracts was added to have a final concentration of 0.1%. kaempferol ([…], Tokyo Chemical Industry Co., Ltd); K. galanga extract: which is obtained by the extraction of Kaempferia galanga rhizomes with 50% 1,3-butylene glycol; Ginkgo leaf extract: which is obtained by resolving 50% ethanol extract from Ginkgo biloba L. leaves in 1,3-butylene glycol. Twenty-four hours after adding the above agents, RNA was isolated by the same method as Example 1, and the mRNA expression level of the inflammation-associated factor (IL1β) was quantified. The used primers are shown below. The mRNA amount of IL1β was divided by the mRNA amount of the ribosomal protein to obtain the mRNA expression level.

[5] = tested on: thioredoxin reductase; assay: Thioredoxin reductase activity in lysates of treated keratinocytes; format: cell-based; conditions: normal human epidermal keratinocytes, 10 μM, 24 hours, relative to control; FIG. 5
Protocol: Normal human epidermal keratinocytes (KK-4009, KURABO) were cultured in Defined Keratinocyte-SFM medium (10744-019, GIBCO) with 5% CO2 under high humidity at 37° C. For the cells with 100% of final density, the medium was replaced with EpiLife™ Calcium-Free Phenol Red Free medium (M-EPICF/PRF-500, KURABO) whose calcium concentration had been adjusted to 1.5 mM. Twenty-four hours later, kaempferol (K0018, Tokyo Chemical Industry Co., Ltd) or quercetin (173-00403, Wako Pure Chemical Industries, Ltd.) was added so as to have a final concentration of 10 μM. Twenty-four hours after adding the agents, the cells were dissolved in lysis buffer, and the insoluble fraction was removed by centrifugation at 14,000 rpm, 4° C. for 15 minutes. The amount of total protein in the soluble fraction was quantified, and then thioredoxin reductase activity was measured by the method of Arne Holmgren et al. (METHODS IN ENZYMOLOGY, 1995, 252, 199-208).

SMILES	expression of the thioredoxin superfamily (mRNA expression level) [1]	expression of the redox-associated factors (mRNA expression level) [2]	expression of the redox-associated factors (mRNA expression level) [3]	suppression of the inflammatory cytokine IL1β (mRNA expression level) [4]	thioredoxin reductase activity [5]
O=c1c(O)c(-c2cc(O)c(O)c(O)c2)oc2cc(O)cc(O)c12 [Myricetin, reference compound]	does not have such a function	–	–	–	–
O=c1c(O)c(-c2ccc(O)cc2)oc2cc(O)cc(O)c12 [kaempferol, Kaempferol]	significantly enhance	significantly enhanced	significantly enhanced	suppression	enhance
O=c1c(O)c(-c2ccc(O)c(O)c2)oc2cc(O)cc(O)c12 [quercetin, Quercetin]	significantly enhance	–	–	–	enhance
